These are literature values, as cited in patent US12377108B2 (Curantis UG, priority 2018, dated 2025).

Some results are limits rather than exact numbers.

The conditions of data set [1]: oral administration; first pass hepatic metabolism.
The conditions of data set [2]: of the activity of Δ9-THC.

On to `C=C(C)[C@@H]1CCC(C)=C[C@H]1c1c(O)cc(CCCCC)cc1O` [CBD, Cannabidiol], for which the oral bioavailability in data set [1] was below 5%.

Regarding `CCCCCc1cc(O)c2c(c1)OC(C)(C)c1ccc(C)cc1-2` [CBN, Cannabinol], the “activity relative to Δ9-THC” value in data set [2] is 10%.
